Measured values taken from patent publication US8653285B2 (Nippon Zoki Pharmaceutical Co., Ltd., priority 2008, dated 2014).
Structures can show the parent of a compound that is named as a salt. Where two headings read alike, the source gives them in different places.

Experiments:
[1] = target: human histamine H1 receptor (Homo sapiens, UniProt P35367); assay: In vitro human histamine H1 receptor binding experiment ([3H]pyrilamine, HEK293A cells stably expressing the receptor); conditions: [3H]pyrilamine 3 nmol/L, room temperature 60 minutes
Procedure: Recombinant human histamine H1 receptor plasmid (prepared by Invitrogen) was transfected to HEK293A cells with Lipofectamine 2000 (Invitrogen). Cells stably expressing human histamine H1 receptor were screened with Geneticin (Invitrogen). The cells were continued to be cultured using a Dulbecco's Modified Eagle Medium containing 10% fetal bovine serum, 0.1 mmol/L MEM Non-Essential Amino Acids Solution, 2 mmol/L L-glutamine and 0.7 mg/mL Geneticin in a 5% CO2 incubator at 37° C. The cells stably expressing human histamine H1 receptor were prepared using 50 mmol/L Tris-HCl (pH 7.5) (hereinafter referred to as buffer) containing 0.1% bovine serum albumin, so as to have a concentration of 3×10^6 cells/mL, to give a cell sample preparation. Fifty microliters of the buffer, 50 μL of a test substance solution at various concentrations, and 50 μL of [^3H]pyrilamine solution (final concentration: 3 nmol/L) were added to each of the wells on the 96-well plate, and stirred, and 100 μL of the cell sample preparation was then added thereto (at a concentration of 3×10^5 cells/well) to initiate the reaction.
The cells were incubated at room temperature for 60 minutes, and then filtered on UniFilter GF/C plate (Packard) immersed in 0.5% polyethyleneimine using a cell harvester (IH-110, INNOTECH CORPORATION), to stop the reaction, and the plate was washed with the buffer. The plate after washing was sufficiently dried, and 20 μL of a scintillator (MaxiLight, manufactured by Hidex) was added thereto, and count per minute (cpm) was measured with a multi-labeled microplate reader (Plate Chameleo II, Hidex). The nonspecific binding was cpm in a case where 30 μmol/L pyrilamine was added. The experiments were carried out at n=3, and at least repeated 3 times.

[2] = tested on: histamine-induced vascular hyperpermeability; assay: Rat histamine-induced vascular hyperpermeability reaction (in vivo antihistamine action); conditions: SD male rat, oral administration, histamine injected intracutaneously 1 hour after administration, leaked Evans Blue; read-out: ED50
Procedure: An SD male rat (SPF) of 180 g in weight was previously fed for one week or more by allowing the rat to take a solid feed and tap water ad libitum, under the environment setting of a temperature of 22° C., humidity of 55% and an artificial illumination of 12 hours a day (light phase 8 am to 8 pm), and the rat was fasted overnight to be used for the experiment. Histamine.dihydrochloride (hereinafter referred to as histamine) and Evans Blue were used by dissolving each in physiological saline upon use. A substance to be tested was dissolved in water for injection or suspended in 0.5% carboxymethyl cellulose sodium, and the rat was orally administered with the solution or suspension (dose volume: 5 mL/kg body weight). After 1 hour from the administration, the physiological saline and the histamine solution were each intracutaneously injected to two locations (20 μg/0.05 ml/location) each on a back part of the rat of which hair was sheared with an electric clipper while anesthetizing with an ether. A 0.5% Evans Blue-containing physiological saline was injected into the tail vein of the rat (1 mL/200 g body weight) immediately before the intracutaneous injection of the histamine.
After 30 minutes, the animal was decapitated, and exsanguinated, and the skin was removed to measure an amount of leaked pigment in the blue-stained portion. The measurement of the amount of leaked pigment was carried out as follows. Skins of the pigment leaking site were cut out at two locations, 1 mL of a 2 mol/L aqueous potassium hydroxide solution was added thereto in a test tube, and the test tube was allowed to stand overnight at 37° C. to dissolve. Thereafter, 6 mL of a 1:3 mixed solution of 0.67 mol/L phosphoric acid and acetone was added to the solution, and the mixture was vigorously shaken for 10 minutes. Thereafter, the mixture was filtered, and the absorbance of the filtrate at 620 nm was measured. The absorbance obtained from the two locations of the sites injected with physiological saline, as blank value, was used for a compensation. The amount of leaked pigment was calculated from the calibration curve of Evans Blue at 620 nm.

[3] = target: T1, cerebral H1 receptor (Mus musculus, UniProt P70174); assay: Murine cerebral H1 receptor occupying content (ex vivo, 3H-pyrilamine binding in brain homogenate after oral administration)
T1 construct: The excised brain tissue was homogenized with Polytron (Kinematica); from tissue; host or cells: ICR mouse brain (entire brain except cerebellum and medulla oblongata), homogenate
Procedure: A 6-week-old ICR male mouse was previously fed for one week or more by allowing the mouse to take a solid feed and tap water ad libitum, under the environment setting of a temperature of 22° C., humidity of 55% and an artificial illumination of 12 hours a day, and the mouse was fasted overnight to be used for the experiment. A substance to be tested was dissolved with water for injection or suspended in 0.5% carboxymethyl cellulose solution, and the solution or suspension was orally administered to the mouse (dose volume: 0.1 mL/10 g body weight). After 1 hour from the oral administration, the mouse was decapitated, and the entire brain, except for cerebellum and medulla oblongatae, was rapidly excised. The excised brain tissue was homogenized with Polytron (Kinematica) in an ice-cooled 50 mmol/L phosphate buffered saline (pH 7.4, 100 mg/1.9 mL).
To a test tube for reaction (TPX-Tube) were added 180 μL of the brain homogenate, and 10 μL of ^3H-pyrilamine solution (final concentration: 2 nmol/L) and 10 μL of a non-labeled pyrilamine solution (final concentration: 200 μmol/L) or a 50 mmol/L phosphate buffered saline, and the mixture was incubated at room temperature for 45 minutes, and 2.0 mL of an ice-cooled, 50 mmol/L phosphate buffered saline was then added thereto to stop the reaction. The reaction mixture was filtered with a GF/B filter ([…]), and the filtrate was placed in a vial and dried overnight at 60 degrees. After drying, 10 mL of a scintillator (AL-1, toluene-based, DOJINDO LABORATORIES) was added to the product, and the disintegration per minute (dpm) was measured with a liquid scintillation counter (Packard, U.S.A., TRI-CARB 2700TR) (5 minutes/vial).

[4] = ICR male mouse, oral administration, brain excised after 1 hour, larger ID50 = lower brain transfer, read-out: ID50 (the source's name)

T1 sequence (P70174 whole entry): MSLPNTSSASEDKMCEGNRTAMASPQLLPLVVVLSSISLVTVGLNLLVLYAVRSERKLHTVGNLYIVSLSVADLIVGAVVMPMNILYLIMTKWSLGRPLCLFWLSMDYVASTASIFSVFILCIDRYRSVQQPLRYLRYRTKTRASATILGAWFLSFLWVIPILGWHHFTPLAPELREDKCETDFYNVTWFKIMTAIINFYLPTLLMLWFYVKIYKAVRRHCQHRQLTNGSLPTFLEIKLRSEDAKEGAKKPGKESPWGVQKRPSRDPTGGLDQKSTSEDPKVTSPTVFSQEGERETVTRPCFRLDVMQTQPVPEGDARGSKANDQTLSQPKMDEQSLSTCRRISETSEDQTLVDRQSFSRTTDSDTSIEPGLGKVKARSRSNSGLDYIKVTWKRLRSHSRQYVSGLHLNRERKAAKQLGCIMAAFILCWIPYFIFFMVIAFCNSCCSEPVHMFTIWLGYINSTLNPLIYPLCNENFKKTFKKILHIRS
Chain of human histamine H1 receptor (P35367 whole entry): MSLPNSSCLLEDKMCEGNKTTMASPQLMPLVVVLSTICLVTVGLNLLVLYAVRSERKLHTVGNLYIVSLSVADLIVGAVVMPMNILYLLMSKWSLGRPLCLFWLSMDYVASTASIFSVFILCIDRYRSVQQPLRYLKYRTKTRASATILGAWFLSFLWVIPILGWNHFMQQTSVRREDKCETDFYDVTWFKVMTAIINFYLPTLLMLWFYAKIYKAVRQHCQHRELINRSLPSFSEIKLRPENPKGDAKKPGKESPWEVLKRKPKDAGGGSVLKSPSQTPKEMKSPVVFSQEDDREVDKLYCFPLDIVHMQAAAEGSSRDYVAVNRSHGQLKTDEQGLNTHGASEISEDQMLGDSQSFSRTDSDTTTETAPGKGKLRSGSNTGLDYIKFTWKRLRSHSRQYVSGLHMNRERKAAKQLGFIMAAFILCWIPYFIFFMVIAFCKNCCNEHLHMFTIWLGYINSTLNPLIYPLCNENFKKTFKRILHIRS

CN(C)CC/C=C1\c2cc(CC(=O)O)ccc2OCc2ccsc21 [Compound 19, (E)-[4-(3-Dimethylaminopropylidene)-4,10-dihydro-9-oxa-3-thiabenzo[f]azulen-6-yl]acetic acid]
IC50 [1]: 56.9 nM | ED50 [2]: 0.24 mg/kg | ED50 [3, 4]: 6.08 mg/kg

CN(C)CCC=C1c2cc(C(C)(C)C(=O)O)ccc2OCc2ccsc21 [Compound 22, (E,Z)-2-[4-(3-Dimethylaminopropylidene)-4,10-dihydro-9-oxa-3-thiabenzo[f]azulen-6-yl]-2-methylpropionic acid]
IC50 [1]: 60 nM | ED50 [2]: ~1 mg/kg | ED50 [3, 4]: 18.7 mg/kg

CCOC(=O)C(C)(C)c1cc2c(s1)C(=O)Cc1ccccc1C2=CCCN(C)C [Compound 24, Ethyl (E,Z)-2-[4-(3-dimethylaminopropylidene)-10-oxo-9,10-dihydro-4H-1-thiabenzo[f]azulen-2-yl]-2-methylpropionate hydrochloride]
IC50 [1]: 13.2 nM | ED50 [2]: ~1 mg/kg | ED50 [3, 4]: 174 mg/kg

O=C(O)Cc1ccc2c(c1)/C(=C\CCN1CCCC1)c1sccc1CO2 [Compound 26, (E)-{4-[3-(Pyrrolidin-1-yl)propylidene]-4,10-dihydro-9-oxa-3-thiabenzo[f]azulen-6-yl}acetic acid]
IC50 [1]: 19.2 nM | ED50 [2]: 0.156 mg/kg | ED50 [3, 4]: 80.9 mg/kg

O=C(O)Cc1ccc2c(c1)/C(=C/CCN1CCCC1)c1sccc1CO2 [Compound 27, (Z)-{4-[3-(Pyrrolidin-1-yl)propylidene]-4,10-dihydro-9-oxa-3-thiabenzo[f]azulen-6-yl}acetic acid]
IC50 [1]: 70.2 nM | ED50 [2]: 0.226 mg/kg | ED50 [3, 4]: > 200 mg/kg

CN(C)CC/C=C1/c2cc(CC(=O)O)ccc2OCc2sccc21 [Compound 28, (Z)-[4-(3-Dimethylaminopropylidene)-4,10-dihydro-9-oxa-1-thiabenzo[f]azulen-6-yl]acetic acid]
IC50 [1]: 43.4 nM | ED50 [2]: < 0.1 mg/kg | ED50 [3, 4]: 5.85 mg/kg

CN(C)CC/C=C1\c2cc(CC(=O)O)ccc2OCc2sccc21 [Compound 29, (E)-[4-(3-Dimethylaminopropylidene)-4,10-dihydro-9-oxa-1-thiabenzo[f]azulen-6-yl]acetic acid]
IC50 [1]: 70.7 nM | ED50 [2]: < 0.1 mg/kg | ED50 [3, 4]: 23.7 mg/kg

CCN(C)CC/C=C1\c2cc(CC(=O)O)ccc2OCc2ccsc21 [Compound 30]
IC50 [1]: 57.6 nM | ED50 [2]: ~0.3 mg/kg | ED50 ([3]; mouse, po, 1 h, read-out: ID50): 95 mg/kg

O=C(O)Cc1ccc2c(c1)/C(=C\CCN1CCCCC1)c1sccc1CO2 [Compound 34, (E)-{4-[3-(Piperidin-1-yl)propylidene]-4,10-dihydro-9-oxa-3-thiabenzo[f]azulen-6-yl}acetic Acid]
IC50 [1]: 31.4 nM | ED50 [2]: ~0.3 mg/kg | ED50 [3, 4]: 34.8 mg/kg

O=C(O)Cc1ccc2c(c1)/C(=C/CCNCc1ccccc1)c1sccc1CO2 [Compound 43, (Z)-[4-(3-Benzylaminopropylidene)-4,10-dihydro-9-oxa-3-thiabenzo[f]azulen-6-yl]acetic acid]
ED50 [2]: 1.31 mg/kg | ED50 [3, 4]: > 80 mg/kg

CN1CCN(CC/C=C2\c3cc(CC(=O)O)ccc3OCc3ccsc32)CC1 [Compound 50, (E)-{4-[3-(4-Methylpiperadin-1-yl)propylidene]-4,10-dihydro-9-oxa-3-thiabenzo[f]azulen-6-yl}acetic acid]
IC50 [1]: 89.1 nM | ED50 [2]: 1.34 mg/kg | ED50 [3, 4]: > 80 mg/kg

CN(C)CC/C=C1/c2cc(CCC(=O)O)ccc2OCc2sccc21.Cl [Compound 57, (Z)-3-[4-(3-Dimethylaminopropylidene)-4,10-dihydro-9-oxa-1-thiabenzo[f]azulen-6-yl]propionic acid hydrochloride]
IC50 [1]: 56.3 nM | ED50 [2]: ~0.1 mg/kg | ED50 ([3]; mouse, po, 1 h, read-out: ID50): > 80 mg/kg

O=C(O)CCc1ccc2c(c1)/C(=C\CCN1CCCC1)c1ccsc1CO2 [Compound 58, (E)-3-{4-[3-(Pyrrolidin-1-yl)propylidene]-4,10-dihydro-9-oxa-1-thiabenzo[f]azulen-6-yl}propionic acid]
IC50 [1]: 23 nM | ED50 [2]: ~0.1 mg/kg | ED50 [3, 4]: 110 mg/kg

O=C(O)CCc1ccc2c(c1)/C(=C/CCN1CCCC1)c1ccsc1CO2 [Compound 59, (Z)-3-{4-[3-(Pyrrolidin-1-yl)propylidene]-4,10-dihydro-9-oxa-1-thiabenzo[f]azulen-6-yl}propionic acid]
IC50 [1]: 36 nM | ED50 [2]: ~0.3 mg/kg | ED50 [3, 4]: > 200 mg/kg

Cl.O=C(O)Cc1ccc2c(c1)/C(=C\CCN1CCCC1)c1sccc1CO2 [Compound 70, (E)-{4-[3-(Pyrrolidin-1-yl)propylidene]-4,10-dihydro-9-oxa-3-thiabenzo[f]azulen-6-yl}acetic acid hydrochloride]
IC50 [1]: 14.3 nM | ED50 [2]: 0.42 mg/kg | ED50 ([3]; mouse, po, 1 h, read-out: ID50): 51.4 mg/kg

Cl.O=C(O)Cc1ccc2c(c1)/C(=C/CCN1CCCC1)c1sccc1CO2 [Compound 71, (Z)-{4-[3-(Pyrrolidin-1-yl)propylidene]-4,10-dihydro-9-oxa-3-thiabenzo[f]azulen-6-yl}acetic acid hydrochloride]
IC50 [1]: 63.4 nM | ED50 [2]: 0.83 mg/kg | ED50 ([3]; mouse, po, 1 h, read-out: ID50): > 80 mg/kg
